Test results taken from patent US20230183293A1, “METHODS OF TREATING OR PREVENTING CORONAVIRUS INFECTION” (priority 2021, published 2023).
Like-named read-outs stand apart in the source and are kept apart here. Marks after values point to notes of the source that are not given here.

Tests used:
[1] = tested on: SARS-CoV-2; conditions: prednisone + voclosporin, expected
[2] = tested on: Vero E6 cells; test: Cytotoxicity in mock-infected Vero E6 cells, pure powder stocks (Example 11); type: cell-based, African green monkey; conditions: solution from pure powder
Method: CPE reductions assays in Vero E6 cells were performed, generally as described above, except that pre-incubation of cells with the tested compounds lasted 30 minutes. Plates were incubated for three days at 37° C. and cell viability was determined using a colorimetric assay, measuring the absorption at 495 nm. The EC50 and CC50 of each compound was determined and analysis of the resultant data using non-linear regression. For each compound, at least two independent experiments (each in quadruplicate) were completed.
CPE reduction assays were performed as described above, using high purity powders of immunosuppressive drugs solubilized in DMSO. Test stock solutions were prepared from pure powders of each compound. In the case of Neoral (CsA microemulsion), CsA powder, the most commonly used CsA derivative in KTR treatment, was evaluated.

[3] = type: physicochemical
[4] = Binding to plastic labware (coated or uncoated 96-well plates), remaining concentration by LC-MS/MS (Example 12); type: physicochemical; conditions: for Conc: 2 μM VCS
Method: Plastic labware was coated with three different coating agents: 100 mg/ml bovine serum albumin in PBS (BSA; Sigma), 1% polyethylene glycol 3350 in MilliQ water (PEG-3350; Sigma) and 0.2% polysorbate 40 in MilliQ water (Tween40; Fluka). In addition, the plastic materials with VCS by treating them with a 500 mM VCS solution in DMSO (Sigma). Labware, including all tubes, tips and culture plastics, was filled with blocking solution and incubated for 2 h at room temperature with rocking to homogenously coat the surfaces. After rinsing twice with MilliQ water, the items were left to dry at room temperature until further use in experiments. Solutions of 0.2 and 2 μM of VCS were prepared in EMEM-2% FCS and 100 μl of each VCS solution was incubated in coated 96-well plates. After a 2 h incubation at 37° C. the remaining VCS concentration was measured by validated LC-MS/MS.

[5] = in vitro; conditions: African green monkey
[6] = tested on: SARS-CoV-2; test: SARS-CoV-2 viral load reduction assay in Vero E6 cells, plaque assay and NSP4 staining (Example 2); type: cell-based
[7] = VCS concentration after incubation in glass without cells, LC-MS/MS; type: physicochemical; conditions: for Conc: 3.2 μM supplied solution, without cells, glass
[8] = Phase 2b study in de novo kidney transplant recipients (Example 3); type: in vivo, human; conditions: for NODAT (new onset of diabetes after transplant) incidence: 6 month
Method: De novo kidney transplant recipients were enrolled into a 6 month, Phase 2b, multi-center, randomized, open-label study. […] In addition, all subjects received induction immunosuppression with intravenous daclizumab or basiliximab (dosed per product labeling) and received concomitant treatment during the study with MMF and corticosteroids. […] Adverse reactions were recorded and renal graft rejection was assessed based on Banff classification. At 3-month and 6-month time points, adverse reactions were analyzed. Graft survival and patient survival were also recorded at the 6-month time point.

[9] = tested on: Calu-3 cells; conditions: plastic, Calu-3, FIG. 6D
[10] = tested on: calcineurin; conditions: in vitro and in vivo; Kuglstatter et al.; cited from earlier work
[11] = tested on: norovirus; conditions: compared with CsA; cited from earlier work
[12] = tested on: SARS-CoV-2; test: CPE reduction assay in Vero E6 cells with pharmaceutical formulations (Example 8); type: cell-based
[13] = tested on: Calu-3 cells; conditions: with cells, glass
[14] = tested on: SARS-CoV-2; test: microbe, parasite or virus in culture; type: cell-based
[15] = tested on: SARS-CoV-2; test: microbe, parasite or virus in culture; type: cell-based; remark: listed apart in the source
[16] = tested on: SARS-CoV-2; type: cell-based
[17] = tested on: Vero E6 cells; conditions: FIG. 1B
[18] = tested on: SARS-CoV-2; test: CPE reduction assay in Vero E6 cells with pharmaceutical formulations dissolved in DMSO (Example 6); type: cell-based; conditions: Severe acute respiratory syndrome coronavirus 2, Vero C1008, 72 h; read-out: EC50, inhibition of virus-induced cell death

**Q.** Which results are given for `C=C/C=C/C[C@@H](C)[C@@H](O)[C@H]1C(=O)N[C@@H](CC)C(=O)N(C)CC(=O)N(C)[C@@H](CC(C)C)C(=O)N[C@@H](C(C)C)C(=O)N(C)[C@@H](CC(C)C)C(=O)N[C@@H](C)C(=O)N[C@H](C)C(=O)N(C)[C@@H](CC(C)C)C(=O)N(C)[C@@H](CC(C)C)C(=O)N(C)[C@@H](C(C)C)C(=O)N1C` [voclosporin]?
**A.** SARS-CoV-2 viral load and CPEs compared to the tacrolimus group ([1]; 6 capsules of 7.9 mg BID): more efficacious reduction in viral load, and less severe CPEs; graft rejections, diabetes and adverse effects compared to the tacrolimus group [1]: comparable or lower incidences of graft rejections, diabetes and adverse effects; cytotoxicity in mock-infected cells compared with the pharmaceutical formulation [2]: less cytotoxicity; detected concentration in the medium of infected cells ([3]; after 24 h treatment with 25 μM VCS, standard plastic labware): 0.68 µM; VCS lost due to plastic binding ([3]; considering a […]% reduction due to cellular binding or uptake): 90%; bioavailable amount of what was added initially when using plastic ([3]; plastic labware): ~10%; Conc ([4]; 100 mg/ml BSA solution coating, 0 h): 550 ± 210 nM; Conc ([4]; 100 mg/ml BSA solution coating, 2 h): 100 ± 40 nM; Conc ([4]; 0.2% Tween-40 solution coating, 0 h): 560 ± 350 nM; Conc ([4]; 0.2% Tween-40 solution coating, 2 h): 90 ± 40 nM; Conc ([4]; 1% PEG-3350 solution coating, 0 h): 510 ± 160 nM; Conc ([4]; 1% PEG-3350 solution coating, 2 h): 90 ± 20 nM; Conc ([4]; Uncoated plastic, 0 h): 560 ± 250 nM; Conc ([4]; Uncoated plastic, 2 h): 130 ± 70 nM; original stock concentration recovered ([4]; t=0): ~27%; CC50 [5]: ~4000 nM; concentration above which viral titer was reduced to the limit of detection ([6]; Vero E6, FIG. 2A, unit not given): above 1.00; amount of SARS-CoV-2 infected cells, fluorescent staining of viral NSP4 ([6]; Vero E6, FIG. 2C): reduced the amount of SARS-CoV-2 infected cells in a dose-dependent manner; Conc ([7]; 0 h): 2910 nM; Conc ([7]; 24 h): 2790 nM; loss of compound from solution ([7]; 24 h at 37° C. in glass without cells): No significant loss; NODAT (new onset of diabetes after transplant) incidence ([8]; high dose): 17.7%; NODAT (new onset of diabetes after transplant) incidence ([8]; high dose, listed as Voclosporin): 17.7%; Central BPAR (biopsy proven acute rejection), patients (incidence) ([8]; high dose, N = 87, 6 month post-transplantation): 2 (2.3%); blood trough level ([8]; high-dose 0.8 mg/kg BID, months 0-3): 60 to 85 ng/mL; blood trough level ([8]; high-dose 0.8 mg/kg BID, months 3-6): 31 to 40 ng/mL; NODAT (new onset of diabetes after transplant) incidence ([8]; low dose): 1.6%; NODAT (new onset of diabetes after transplant) incidence ([8]; low dose, listed as Voclosporin): 1.6%; Central BPAR (biopsy proven acute rejection), patients (incidence) ([8]; low dose, N = 84, 6 month post-transplantation): 9 (10.7%); blood trough level ([8]; low-dose 0.4 mg/kg BID, months 0-3): 20 to 30 ng/mL; blood trough level ([8]; low-dose 0.4 mg/kg BID, months 3-6): 11 to 20 ng/mL; NODAT (new onset of diabetes after transplant) incidence ([8]; mid dose): 5.7%; NODAT (new onset of diabetes after transplant) incidence ([8]; mid dose, listed as Voclosporin): 5.7%; Central BPAR (biopsy proven acute rejection), patients (incidence) ([8]; mid dose, N = 77, 6 month post-transplantation): 7 (9.1%); blood trough level ([8]; mid-dose 0.6 mg/kg BID, months 0-3): 35 to 50 ng/mL; cytotoxicity [9]: did not; increase of binding affinity to calcineurin compared to CsA [10]: up to five-fold; inhibition of norovirus replication [11]: inhibit norovirus replication in a CypA-dependent manner and more effectively than CsA; times lower EC50 compared to the other compounds tested [12]: 18-45 times; EC50 ([12]; Severe acute respiratory syndrome coronavirus 2, Vero C1008, 72 h, Vero E6, 3 days, read-out: EC50, inhibition of virus-induced cell death): 220 ± 10 nM; Conc ([13]; 0.2 μM supplied solution, 0 h): 0.33 µM; Conc ([13]; 0.2 μM supplied solution, 24 h, below detection limit): <0.07* μM; Conc ([13]; 0.4 μM supplied solution, 0 h): 0.45 µM; Conc ([13]; 0.4 μM supplied solution, 24 h): 0.10 µM; Conc ([13]; 0.8 μM supplied solution, 0 h): 0.99 µM; Conc ([13]; 0.8 μM supplied solution, 24 h): 0.15 µM; Conc ([13]; 1.6 μM supplied solution, 0 h): 1.77 µM; Conc ([13]; 1.6 μM supplied solution, 24 h): 0.35 µM; Conc ([13]; 3.2 μM supplied solution, 0 h): 2.91 µM; Conc ([13]; 3.2 μM supplied solution, 24 h): 0.82 µM; protection of SARS-CoV-2 infected cells compared with the pharmaceutical formulation [14]: did not confer the same level of protection; EC50 ([15]; Severe acute respiratory syndrome coronavirus 2, Vero C1008, FIG. 1C, Vero E6 CPE reduction, read-out: EC50 inhibition of SARS-CoV-2): ~400 nM; concentration preserving viability of infected cells at level of mock-infected/uninfected cells ([15]; Vero E6, 3 days): 0.8 µM; reduction in SARS-CoV-2 infectious progeny titers [16]: more than 1.5 log; concentrations without toxicity to uninfected cells ([17]; batch 4): up to 10 μM; concentrations without toxicity to uninfected cells ([17]; unit not given): under 2; EC50 [18]: 270 nM
